These results are taken from patent publication US20020107245A1, “Method for treating fibrotic diseases or other indications IVC” (priority 2000, published 2002).

For one test, the system named is Rats. The test is described as follows: Rat left anterior descending coronary artery ligation, histological examination of hearts. As to conditions: 10 mg/kg daily intraperitoneal for 30 days before ligation and 14 days after. Type of test: in vivo. On the procedure:
Rats received a daily intraperitoneal dose of 10 mg/kg 3-[2-phenyl-2-oxoethyl]-4,5-dimethyl-thiazolium salt (compound A) (n=14) or placebo (n=15) for 30 days. The animals then underwent a thoracotomy and the left anterior descending coronary artery ligated. The chest was then closed and the animals allowed to recover for 14 days while continuing to be treated with compound A or placebo. The animals were then sacrificed and the hearts removed for histological examination. The weight of the infarcted tissue was 0.16±0.04 g for the placebo treated animals compared to 0.11±0.05 g for the compound A treated animals (p=0.04).

For test [1], the system named is elderly patients with pulse pressures greater than 60 mm Hg. The test is described as follows: Phase Ia clinical trial. Type of test: in vivo, human. An excerpt: When the heart pumps blood into the vascular system, the ability of the arteries to expand helps to push blood through the body. When arteries become stiff, as they do in the natural process of aging, the ability of the arteries to expand is diminished and also has consequences for the heart. The heart has to work harder to pump the blood into the stiff arteries, and eventually hypertrophies (enlarges in size) to accomplish this. A hypertrophied heart is an inefficient pump, and is one of the disorders that leads to congestive heart failure. […] The potential clinical benefit of this is to lessen the effort that the heart must expend to push blood throughout the body. The effect is also believed to contribute to preventing hypertrophy and subsequent inefficiency of the heart, which inefficiency would contribute to congestive heart failure.
Atherosclerosis is a disease that involves deposition of blood lipids in plaque in the arteries throughout the body. In coronary arteries, accumulation of plaque progressively leads to reduced coronary flow, with occlusion of the arteries causing focal death of cardiac tissue (myocardial infarction, heart attack). If the amount of tissue that dies is large enough, death ensures. […]

The test system of a further test is dog model for diabetes. The test is described as follows: Dog model for diabetes, indicators of ventricular elasticity. Format: in vivo. An excerpt: (§1) Cardiovascular risk correlates more closely with the systolic and the pulse pressure than with the diastolic pressure. In diabetic patients, the cardiovascular risk profile of diabetic patients is strongly correlated to duration of diabetes, glycemic control and blood pressure. Structural matrix proteins contribute to the function of vessels and the heart, and changes in the physical behavior of cardiovascular walls are believed to be important determinants of circulatory function. In elderly individuals, the loss of compliance in the aorta leads to isolated systolic hypertension, which in turn expands the arterial wall and thereby diminishes the dynamic range of elasticity. […] Treatment with 3-[2-phenyl-2-oxoethyl]-4,5-dimethyl-thiazolium salt lead to a reduction in the mass of collagen in cardiovascular tissues.

The test system of test [2] is rodents, canines and primates. The test is described as follows: In vivo studies of vascular stiffening and collagen mass in cardiovascular tissues.
From the text: as §1

For a further test, the system named is TGFbeta. The test is described as follows: In situ hybridization studies.
From the text: as §1

A further test relates to Type IV collagen. The test is described as follows: In situ hybridization studies.
From the text: as §1

Structures are written as SMILES. Where a name gives a salt, the structure may show the parent alone.

On to `Cc1sc[n+](CC(=O)c2ccccc2)c1C` [compound A, 3-[2-phenyl-2-oxoethyl]-4,5-dimethyl-thiazolium salt], for which, in the test on Rats, the “thickness of the ventricular wall in the infarcted zone” value was determined as 2.56±0.22 mm and the “weight of the infarcted tissue” value is 0.11 ± 0.05 g. The “stiffness of arteries, as measured by the ratio of stroke volume (ml) to pulse pressure (mm Hg)” value in test [1] (Phase Ia clinical trial) was “showed an ability to reverse the stiffness of arteries”. Besides, in test [1] (Phase Ia trial, elderly patients with pulse pressures greater than 60 mm Hg), the pulse pressure result is recorded as “reduced”. For the same compound, in the test on dog model for diabetes, the end diastolic pressure entry is “returned to a value at about the mid-point between the disease impaired value and the value for control dogs”; the end diastolic volume result was “returned to a value at about the mid-point between the disease impaired value and the value for control dogs”. Moreover, the “mass of collagen in cardiovascular tissues” value in test [2] (in vivo) is listed as “reduction”. For the same compound, the vascular stiffening entry in test [2] (in vivo studies in rodents, canines and primates) is recorded as “substantially ameliorating vascular stiffening”. Further, the “expression of TGFbeta” value in the test on TGFbeta is listed as “reduces”. The “expression of Type IV collagen” value in the test with Type IV collagen was “reduces”.
